Results from patent US20250114367A1, “METHOD OF TREATING HAIR LOSS DISORDERS” (Sun Pharmaceutical Industries, Inc., priority 2023, published 2025).

Assays:
[1] = tested on: adult subjects with moderate to severe AA; assay: Phase III trial: Severity of Alopecia Tool (SALT) score; assay type: in vivo, human; conditions: for percentages of participants (responders) stratified by duration of current AA episode: week 24
Description: The SALT score is calculated for a patient/subject by measuring the percentage of hair loss in each of the 4 areas of the scalp and adding the total to achieve a composite score (referred to herein as an absolute SALT score). Hair regrowth is reflected by a decrease in the SALT score.
Approximately 440 adult male and female subjects 18 to 65 years of age, inclusive, with moderate to severe AA participated in the study. Subjects with definitive diagnosis of AA, and at least 50% hair loss, as defined by a SALT score ≥50, who met all of the inclusion criteria and none of the exclusion criteria participated in the study.
(§1) The Screening Period lasted up to 28 days prior to initiation of study drug. […] Randomization was stratified by scalp hair loss into 1 of the following 2 categories: 1) partial scalp hair loss (SALT ≥50 and <95), 2) complete or near complete scalp hair loss (SALT ≥95).
Assessment of treatment response using SALT for efficacy occurred at 4, 8, 12, 16, 20 and 24 weeks.
The primary efficacy endpoint was the percentage of subjects achieving an absolute SALT score of ≤20.
(§2) Additional secondary efficacy endpoints included the following: • Relative change in SALT scores from baseline at Weeks 4, 8, 12, 16, 20, and 24. • Percentage of responders (defined as “much improved” or “very much improved”) using the Clinical Global Impression of Improvement (CGI-I) at Weeks 12, 16, 20, and 24. • Percentage of responders (defined as “much improved” or “very much improved”) using the Patient Global Impression of Improvement (PGI-I) at Weeks 12, 16, 20, and 24. • Change from baseline in the Clinical Global Impression of Severity (CGI-S) at Weeks 12, 16, 20, and 24. • Change from baseline in the Patient Global Impression of Severity (PGI-S) at Weeks 12, 16, 20, and 24. • Change from baseline on the Brigham Eyebrow Tool for Alopecia (BETA) score at Weeks 12 and 24. • Change from baseline on the Brigham Eyelash Tool for Alopecia (BELA) score at Weeks 12 and 24. • Percentage of subjects achieving at least a 75% relative reduction in SALT score from baseline at Weeks 12 and 24. • Percentage of subjects achieving at least a 90% relative reduction in SALT score from baseline at Weeks 12 and 24. • Percentage of responders (defined as “satisfied” or “very satisfied”) on the SPRO scale at Weeks 12, 16, and 20. • Change from baseline in the SPRO scale at Weeks 12, 16, 20, and 24. • Percentage of subjects achieving a ≥2-point change from baseline in the SPRO scale at Weeks 12, 16, 20, and 24. • Change from baseline on the individual items of the Hair Quality Patient Reported Outcome (QPRO) scale at Weeks 12, 16, 20, and 24. • Change from baseline in the depression scale of the Hospital Anxiety and Depression Scale (HADS) at Week 24. • Change from baseline in the anxiety scale of the HADS at Week 24. • Percentage of subjects achieving an absolute SALT score of ≤20 at Week 4. • Percentage of subjects achieving an absolute SALT score of ≤10 at Week 24
• Clinical presentation compatible with alopecia areata with a current episode lasting at least 6 months and not exceeding 10 years at the time of Screening. Total disease duration greater than 10 years is permitted. • At least 50% scalp hair loss, as defined by a Severity of Alopecia Tool (SALT) score ≥50, at Screening and Baseline. • Willing to comply with the study visits and requirements of the study protocol.
This will include but is not limited to: • a. Platelets ≤100×109/L or ≥600×109/L • b. Absolute neutrophil count ≤1.5×109/L • c.

subjects with AA = assay: Open-label extension (OLE) studies: safety
Description: Two separate OLE trials were conducted in North America (CP543.5001) and the European Union (CP543.5002). […] Both OLE trials were similarly designed, except: Trial CP543.5001 (North America) participants have the opportunity to continue in the trial for a maximum of 276 weeks; and Trial CP543.5002 (European Union) participants have the opportunity to continue in the trial for a maximum of 108 weeks.
Subjects receiving any active dose of deuruxolitinib in the qualifying trials were initially assigned to receive either 8 mg BID or 12 mg BID in the OLE trial. Subjects receiving placebo in the qualifying trial were assigned to either deuruxolitinib 8 mg BID or 12 mg BID. Subjects were allowed to switch doses during the OLE after initial treatment assignment at the discretion of the Principal Investigator.

[2] = tested on: adult subjects with moderate to severe AA; assay: Phase III trial: Brigham Eyelash Tool for Alopecia (BELA); assay type: in vivo, human
Description: The BELA is a clinician-rated scale developed by dermatologists at Brigham and Women's Hospital that assesses the total eyelash hair present Manjaly, P. et al., Development and validation of the Brigham Eyelash Tool for Alopecia (BELA): A measure of eyelash alopecia areata, J Am Acad Dermatol (2021) 1-2. The BELA is calculated based on grade values (range 0 to 3) and distribution. The BELA score is the sum of the individual scores for the left and right eyes (range 0 (absent) to 6). The same expert panel of certified raters at Brigham and Women's Hospital who performed the BETA assessment also performed central readings based on photographs of the eyelashes and determined a score for each subject with eyelash involvement following each visit where an assessment of eyelash hair presence was assessed. The BELA was performed at baseline, Week 12, and Week 24. If a subject was unable to attend an in-person clinic visit due to COVID-19, the BELA may not have been performed due to the inability to take photographs of the eyelashes.
(§3) A Phase III trial was conducted to assess the efficacy and safety of CTP-543 in adult subjects with moderate to severe AA. Approximately 440 adult male and female subjects 18 to 65 years of age, inclusive, with moderate to severe AA participated in the study. Subjects with definitive diagnosis of AA, and at least 50% hair loss, as defined by a SALT score ≥50, who met all of the inclusion criteria and none of the exclusion criteria participated in the study.
The Screening Period lasted up to 28 days prior to initiation of study drug. […] Randomization was stratified by scalp hair loss into 1 of the following 2 categories: 1) partial scalp hair loss (SALT ≥50 and <95), 2) complete or near complete scalp hair loss (SALT ≥95). […]

[3] = tested on: adult subjects with moderate to severe AA; assay: Phase III trial: Hair Quality Patient Reported Outcome (QPRO); assay type: in vivo, human; conditions: Weeks 12, 16, 20, and 24
Description: as §3, §1, §2
The individual items of satisfaction with thickness of hair coverage, satisfaction with evenness of hair coverage, satisfaction with eyebrows, and satisfaction with eyelashes are rated on a scale of 1 to 5. A decrease from baseline in the QPRO score represents improvement. For each item and time point, treatment group differences favored CTP-543 over placebo.

[2H]C1([2H])C([C@@H](CC#N)n2cc(-c3ncnc4[nH]ccc34)cn2)C([2H])([2H])C([2H])([2H])C1([2H])[2H] [CTP-543, (R)-3-(4-(7H-pyrrolo[2,3-d]pyrimidin-4-yl)-1H-pyrazol-1-yl)-3-(cyclopentyl-2,2,3,3,4,4,5,5-d8) propanenitrile]
percentage of subjects achieving an absolute SALT score of ≤20 ([1]; Week 8, 12 mg BID): 2.4%
percentage of subjects achieving an absolute SALT score of ≤20 ([1]; Week 12, 8 mg BID): 10.5%
percentage of subjects achieving an absolute SALT score of ≤20 ([1]; Week 12, 12 mg BID): 12.3%
percentage of subjects achieving an absolute SALT score of ≤20 ([1]; Week 16, 8 mg BID): 20.2%
percentage of subjects achieving an absolute SALT score of ≤20 ([1]; Week 16, 12 mg BID): 21.1%
percentage of subjects achieving an absolute SALT score of ≤20 ([1]; Week 20, 12 mg BID): 28.8%
percentage of subjects achieving an absolute SALT score of ≤20 ([1]; Week 24, 8 mg BID): 33%
percentage of subjects achieving an absolute SALT score of ≤20 ([1]; Week 24, 12 mg BID): 38.3%
percentage of subjects with an absolute SALT score ≤10 ([1]; Week 24, 12 mg BID): 26.7%
subjects achieving SALT score ≤20 ([1]; Week 24, complete or near-complete scalp hair loss, 8 mg BID, 31/156): 20.9%
subjects achieving SALT score ≤20 ([1]; Week 24, complete or near-complete scalp hair loss, 8 mg BID, 37/184): 20.1%
subjects achieving SALT score ≤20 ([1]; Week 24, complete or near-complete scalp hair loss, 12 mg BID, 19/79): 26.0
subjects achieving SALT score ≤20 ([1]; Week 24, complete or near-complete scalp hair loss, 12 mg BID, 33/112): 29.5
subjects achieving SALT score ≤20 ([1]; Week 24, partial scalp hair loss at baseline, 8 mg BID, 46/93): 54.1%
subjects achieving SALT score ≤20 ([1]; Week 24, partial scalp hair loss at baseline, 8 mg BID, 57/134): 42.5%
subjects achieving SALT score ≤20 ([1]; Week 24, partial scalp hair loss at baseline, 12 mg BID, 27/48): 57.4%
subjects achieving SALT score ≤20 ([1]; Week 24, partial scalp hair loss at baseline, 12 mg BID, 50/88): 56.8%
hair regrowth vs placebo ([1]; two Phase 3 trials, THRIVE-AA1 and THRIVE-AA2): significant improvements in hair regrowth vs placebo
percentage of subjects achieving an absolute SALT score of ≤20 ([1]; week 8, 8 mg BID): 2.9%
percentages of participants (responders) stratified by duration of current AA episode ([1]; >4 years duration, 12 mg BID, 13/50): 28.9%
percentages of participants (responders) stratified by duration of current AA episode ([1]; ≤4 years duration, 8 mg BID, 57/157): 38.3%
percentages of participants (responders) stratified by duration of current AA episode ([1]; ≤4 years duration, 12 mg BID, 33/77): 44.0%
most common adverse events (subjects with AA): COVID-19, acne, nasopharyngitis, headache, asymptomatic COVID-19, creatinine phosphokinase increase, and upper respiratory tract infection
BELA score, LS mean change from baseline ([2]; Week 12, 8 mg BID): 0.9
BELA score, LS mean change from baseline ([2]; Week 12, 12 mg BID): 1.0
BELA score, LS mean change from baseline ([2]; Week 24, 8 mg BID): 1.4
BELA score, LS mean change from baseline ([2]; Week 24, 12 mg BID): 1.5
QPRO satisfaction with evenness of hair coverage, treatment group difference from placebo ([3]; 8 mg BID): −1.3 to −0.9
QPRO satisfaction with eyebrows, treatment group difference from placebo ([3]; 8 mg BID): −1.2 to −1.0
QPRO satisfaction with eyelashes, treatment group difference from placebo ([3]; 8 mg BID): −1.2 to −0.9
QPRO satisfaction with thickness of hair coverage, treatment group difference from placebo ([3]; 8 mg BID): −1.3 to −1.0
QPRO satisfaction with evenness of hair coverage, treatment group difference from placebo ([3]; 12 mg BID): −1.5 to −1.0
QPRO satisfaction with eyebrows, treatment group difference from placebo ([3]; 12 mg BID): −1.5 to −1.1
QPRO satisfaction with eyelashes, treatment group difference from placebo ([3]; 12 mg BID): −1.4 to −0.9
QPRO satisfaction with thickness of hair coverage, treatment group difference from placebo ([3]; 12 mg BID): −1.6 to −1.1
